Where two headings read alike, the source gives them in different places.
Assays:
EGFR = EGFR (Homo sapiens, UniProt P00533); experiment: ADP-Glo kinase assay, EGFR; assay type: biochemical; design: purchased BPS Bioscience (assay run externally by the vendor)
aurora A kinase (AURKA) = molecular target: T1, aurora A kinase (AURKA) (Homo sapiens, UniProt O14965); experiment: ADP-Glo kinase assay, Aurora A; assay type: biochemical
T1 construct: purchased BPS Bioscience (assay run externally by the vendor)
T1 sequence (O14965 1-403): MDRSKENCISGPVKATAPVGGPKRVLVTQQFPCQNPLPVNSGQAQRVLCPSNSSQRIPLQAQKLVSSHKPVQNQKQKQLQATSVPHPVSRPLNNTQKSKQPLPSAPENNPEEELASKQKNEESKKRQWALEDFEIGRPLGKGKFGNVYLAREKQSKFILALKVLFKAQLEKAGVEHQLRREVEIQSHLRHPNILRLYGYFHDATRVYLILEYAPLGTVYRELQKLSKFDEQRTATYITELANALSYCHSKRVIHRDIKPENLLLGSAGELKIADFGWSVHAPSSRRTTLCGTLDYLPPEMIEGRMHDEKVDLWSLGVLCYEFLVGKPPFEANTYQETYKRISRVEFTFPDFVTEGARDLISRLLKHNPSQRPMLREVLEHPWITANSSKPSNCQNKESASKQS

[1] = 10 µM ATP, triplicate, read-out: EGFR IC50 ± SD
[2] = 10 µM ATP/0.2 mg/ml Poly-Glu-Tyr, read-out: EGFR IC50 (dose-response curve, supplement)
[3] = 10 µM ATP, triplicate, read-out: AURKA IC50 ± SD
[4] = 10 µM ATP/0.2 mg/ml Kemptide, read-out: Aurora A IC50 (dose-response curve, supplement)

EGFR, sequence (P00533 25-1210): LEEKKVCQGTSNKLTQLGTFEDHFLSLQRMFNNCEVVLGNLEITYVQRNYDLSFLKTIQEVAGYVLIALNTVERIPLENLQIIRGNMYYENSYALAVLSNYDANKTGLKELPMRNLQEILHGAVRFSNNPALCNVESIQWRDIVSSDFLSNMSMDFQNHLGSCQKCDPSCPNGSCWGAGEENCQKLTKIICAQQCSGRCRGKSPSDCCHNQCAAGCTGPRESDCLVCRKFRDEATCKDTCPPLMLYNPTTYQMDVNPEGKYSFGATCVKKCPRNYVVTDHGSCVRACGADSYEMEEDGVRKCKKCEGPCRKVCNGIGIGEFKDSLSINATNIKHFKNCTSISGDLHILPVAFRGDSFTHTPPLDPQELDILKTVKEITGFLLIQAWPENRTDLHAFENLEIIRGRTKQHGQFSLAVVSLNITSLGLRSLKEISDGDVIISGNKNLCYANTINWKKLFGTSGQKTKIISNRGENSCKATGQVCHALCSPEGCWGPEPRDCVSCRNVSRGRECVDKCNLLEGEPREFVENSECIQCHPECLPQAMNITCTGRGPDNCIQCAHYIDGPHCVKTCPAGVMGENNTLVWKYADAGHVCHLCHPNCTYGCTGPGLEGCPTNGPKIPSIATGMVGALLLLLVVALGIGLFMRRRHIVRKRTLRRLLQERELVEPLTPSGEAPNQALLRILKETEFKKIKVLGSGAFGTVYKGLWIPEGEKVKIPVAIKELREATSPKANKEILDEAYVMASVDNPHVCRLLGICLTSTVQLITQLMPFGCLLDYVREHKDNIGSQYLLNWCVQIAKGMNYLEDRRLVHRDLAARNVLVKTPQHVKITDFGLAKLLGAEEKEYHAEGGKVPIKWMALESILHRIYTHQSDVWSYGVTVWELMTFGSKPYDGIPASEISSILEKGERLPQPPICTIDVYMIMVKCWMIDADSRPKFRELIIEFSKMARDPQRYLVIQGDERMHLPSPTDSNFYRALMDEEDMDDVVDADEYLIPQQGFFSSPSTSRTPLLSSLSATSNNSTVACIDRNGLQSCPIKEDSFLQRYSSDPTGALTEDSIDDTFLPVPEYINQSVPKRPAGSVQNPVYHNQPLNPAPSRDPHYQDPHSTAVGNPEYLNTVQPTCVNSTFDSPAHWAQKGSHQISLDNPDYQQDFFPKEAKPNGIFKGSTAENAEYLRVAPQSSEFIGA

SMILES: COc1ccc(Nc2ncnc3[nH]ccc23)cc1 [Compound 6, N^4-(4-methoxyphenyl)-7H-pyrrolo[2,3-d]pyrimidine-4-amine]
- EGFR inhibition (in words) (EGFR): micromolar EGFR inhibition
- Fold better for EGFR over AURKA (EGFR): 2 fold
- Fold less potent than staurosporine against EGFR (EGFR): seven-fold
- IC50 (EGFR; [1]): 2.94 ± 0.0944 µM
- IC50 (EGFR; [2]): 3 µM
- EGFR % Activity Set1 (EGFR; Log[nM] 0): 98%
- EGFR % Activity Set2 (EGFR; Log[nM] 0): 102%
- EGFR % Activity Set3 (EGFR; Log[nM] 0): 105%
- EGFR % Activity Set1 (EGFR; Log[nM] 1.0): 102%
- EGFR % Activity Set2 (EGFR; Log[nM] 1.0): 110%
- EGFR % Activity Set3 (EGFR; Log[nM] 1.0): 108%
- EGFR % Activity Set1 (EGFR; Log[nM] 1.5): 105%
- EGFR % Activity Set2 (EGFR; Log[nM] 1.5): 106%
- EGFR % Activity Set3 (EGFR; Log[nM] 1.5): 108%
- EGFR % Activity Set1 (EGFR; Log[nM] 2.0): 99%
- EGFR % Activity Set2 (EGFR; Log[nM] 2.0): 102%
- EGFR % Activity Set3 (EGFR; Log[nM] 2.0): 104%
- EGFR % Activity Set1 (EGFR; Log[nM] 2.5): 96%
- EGFR % Activity Set2 (EGFR; Log[nM] 2.5): 93%
- EGFR % Activity Set3 (EGFR; Log[nM] 2.5): 97%
- EGFR % Activity Set1 (EGFR; Log[nM] 3.0): 72%
- EGFR % Activity Set2 (EGFR; Log[nM] 3.0): 79%
- EGFR % Activity Set3 (EGFR; Log[nM] 3.0): 78%
- EGFR % Activity Set1 (EGFR; Log[nM] 3.5): 43%
- EGFR % Activity Set2 (EGFR; Log[nM] 3.5): 48%
- EGFR % Activity Set3 (EGFR; Log[nM] 3.5): 43%
- EGFR % Activity Set1 (EGFR; Log[nM] 4.0): 23%
- EGFR % Activity Set2 (EGFR; Log[nM] 4.0): 24%
- EGFR % Activity Set3 (EGFR; Log[nM] 4.0): 22%
- EGFR % Activity Set1 (EGFR; Log[nM] 4.5): 8%
- EGFR % Activity Set2 (EGFR; Log[nM] 4.5): 9%
- EGFR % Activity Set3 (EGFR; Log[nM] 4.5): 8%
- EGFR % Activity Set1 (EGFR; Log[nM] 5.0): 4%
- EGFR % Activity Set2 (EGFR; Log[nM] 5.0): 4%
- EGFR % Activity Set3 (EGFR; Log[nM] 5.0): 4%
- IC50 (aurora A kinase (AURKA); [3]): 6.68 ± 0.54 µM
- IC50 (aurora A kinase (AURKA); [4]): 6.7 µM
- Aurora A % Activity Set1 (aurora A kinase (AURKA); Log[nM] 0): 104%
- Aurora A % Activity Set2 (aurora A kinase (AURKA); Log[nM] 0): 94%
- Aurora A % Activity Set3 (aurora A kinase (AURKA); Log[nM] 0): 88%
- Aurora A % Activity Set1 (aurora A kinase (AURKA); Log[nM] 1.0): 95%
- Aurora A % Activity Set2 (aurora A kinase (AURKA); Log[nM] 1.0): 89%
- Aurora A % Activity Set3 (aurora A kinase (AURKA); Log[nM] 1.0): 91%
- Aurora A % Activity Set1 (aurora A kinase (AURKA); Log[nM] 1.5): 111%
- Aurora A % Activity Set2 (aurora A kinase (AURKA); Log[nM] 1.5): 100%
- Aurora A % Activity Set3 (aurora A kinase (AURKA); Log[nM] 1.5): 110%
- Aurora A % Activity Set1 (aurora A kinase (AURKA); Log[nM] 2.0): 100%
- Aurora A % Activity Set2 (aurora A kinase (AURKA); Log[nM] 2.0): 95%
- Aurora A % Activity Set3 (aurora A kinase (AURKA); Log[nM] 2.0): 96%
- Aurora A % Activity Set1 (aurora A kinase (AURKA); Log[nM] 2.5): 108%
- Aurora A % Activity Set2 (aurora A kinase (AURKA); Log[nM] 2.5): 100%
- Aurora A % Activity Set3 (aurora A kinase (AURKA); Log[nM] 2.5): 106%
- Aurora A % Activity Set1 (aurora A kinase (AURKA); Log[nM] 3.0): 88%
- Aurora A % Activity Set2 (aurora A kinase (AURKA); Log[nM] 3.0): 91%
- Aurora A % Activity Set3 (aurora A kinase (AURKA); Log[nM] 3.0): 84%
- Aurora A % Activity Set1 (aurora A kinase (AURKA); Log[nM] 3.5): 86%
- Aurora A % Activity Set2 (aurora A kinase (AURKA); Log[nM] 3.5): 80%
- Aurora A % Activity Set3 (aurora A kinase (AURKA); Log[nM] 3.5): 76%
- Aurora A % Activity Set1 (aurora A kinase (AURKA); Log[nM] 4.0): 30%
- Aurora A % Activity Set2 (aurora A kinase (AURKA); Log[nM] 4.0): 33%
- Aurora A % Activity Set3 (aurora A kinase (AURKA); Log[nM] 4.0): 27%
- Aurora A % Activity Set1 (aurora A kinase (AURKA); Log[nM] 4.5): 14%
- Aurora A % Activity Set2 (aurora A kinase (AURKA); Log[nM] 4.5): 14%
- Aurora A % Activity Set3 (aurora A kinase (AURKA); Log[nM] 4.5): 13%
- Aurora A % Activity Set1 (aurora A kinase (AURKA); Log[nM] 5.0): 8%
- Aurora A % Activity Set2 (aurora A kinase (AURKA); Log[nM] 5.0): 6%
- Aurora A % Activity Set3 (aurora A kinase (AURKA); Log[nM] 5.0): 4%

SMILES: Clc1ccc(Nc2ncnc3[nH]ccc23)cc1Br [Compound 7, N^4-(3-bromo, 4-chlorophenyl)-7H-pyrrolo[2,3-d]pyrimidine-4-amine]
- EGFR inhibition (in words) (EGFR): single-digit nanomolar EGFR inhibition
- IC50 (EGFR; [1]): 0.00363 ± 0.00043 µM
- IC50 (EGFR; [2]): 0.0036 µM
- EGFR % Activity Set1 (EGFR; Log[nM] 0): 44%
- EGFR % Activity Set2 (EGFR; Log[nM] 0): 50%
- EGFR % Activity Set3 (EGFR; Log[nM] 0): 53%
- EGFR % Activity Set1 (EGFR; Log[nM] 1.0): 18%
- EGFR % Activity Set2 (EGFR; Log[nM] 1.0): 17%
- EGFR % Activity Set3 (EGFR; Log[nM] 1.0): 20%
- EGFR % Activity Set1 (EGFR; Log[nM] 1.5): 12%
- EGFR % Activity Set2 (EGFR; Log[nM] 1.5): 13%
- EGFR % Activity Set3 (EGFR; Log[nM] 1.5): 15%
- EGFR % Activity Set1 (EGFR; Log[nM] 2.0): 4%
- EGFR % Activity Set2 (EGFR; Log[nM] 2.0): 5%
- EGFR % Activity Set3 (EGFR; Log[nM] 2.0): 4%
- EGFR % Activity Set1 (EGFR; Log[nM] 2.5): 3%
- EGFR % Activity Set2 (EGFR; Log[nM] 2.5): 3%
- EGFR % Activity Set3 (EGFR; Log[nM] 2.5): 3%
- EGFR % Activity Set1 (EGFR; Log[nM] 3.0): 1%
- EGFR % Activity Set2 (EGFR; Log[nM] 3.0): 2%
- EGFR % Activity Set3 (EGFR; Log[nM] 3.0): 2%
- EGFR % Activity Set1 (EGFR; Log[nM] 3.5): 1%
- EGFR % Activity Set2 (EGFR; Log[nM] 3.5): 1%
- EGFR % Activity Set3 (EGFR; Log[nM] 3.5): 0%
- EGFR % Activity Set1 (EGFR; Log[nM] 4.0): 0%
- EGFR % Activity Set2 (EGFR; Log[nM] 4.0): 0%
- EGFR % Activity Set3 (EGFR; Log[nM] 4.0): 0%
- EGFR % Activity Set1 (EGFR; Log[nM] 4.5): 1%
- EGFR % Activity Set2 (EGFR; Log[nM] 4.5): 1%
- EGFR % Activity Set3 (EGFR; Log[nM] 4.5): 1%
- EGFR % Activity Set1 (EGFR; Log[nM] 5.0): 0%
- EGFR % Activity Set2 (EGFR; Log[nM] 5.0): 0%
- EGFR % Activity Set3 (EGFR; Log[nM] 5.0): 0%
- IC50 (aurora A kinase (AURKA); [3]): 3.23 ± 0.31 µM
- IC50 (aurora A kinase (AURKA); [4]): 3.3 µM
- Aurora A % Activity Set1 (aurora A kinase (AURKA); Log[nM] 0): 95%
- Aurora A % Activity Set2 (aurora A kinase (AURKA); Log[nM] 0): 102%
- Aurora A % Activity Set3 (aurora A kinase (AURKA); Log[nM] 0): 95%
- Aurora A % Activity Set1 (aurora A kinase (AURKA); Log[nM] 1.0): 100%
- Aurora A % Activity Set2 (aurora A kinase (AURKA); Log[nM] 1.0): 103%
- Aurora A % Activity Set3 (aurora A kinase (AURKA); Log[nM] 1.0): 99%
- Aurora A % Activity Set1 (aurora A kinase (AURKA); Log[nM] 1.5): 100%
- Aurora A % Activity Set2 (aurora A kinase (AURKA); Log[nM] 1.5): 103%
- Aurora A % Activity Set3 (aurora A kinase (AURKA); Log[nM] 1.5): 103%
- Aurora A % Activity Set1 (aurora A kinase (AURKA); Log[nM] 2.0): 100%
- Aurora A % Activity Set2 (aurora A kinase (AURKA); Log[nM] 2.0): 106%
- Aurora A % Activity Set3 (aurora A kinase (AURKA); Log[nM] 2.0): 105%
- Aurora A % Activity Set1 (aurora A kinase (AURKA); Log[nM] 2.5): 95%
- Aurora A % Activity Set2 (aurora A kinase (AURKA); Log[nM] 2.5): 97%
- Aurora A % Activity Set3 (aurora A kinase (AURKA); Log[nM] 2.5): 95%
- Aurora A % Activity Set1 (aurora A kinase (AURKA); Log[nM] 3.0): 95%
- Aurora A % Activity Set2 (aurora A kinase (AURKA); Log[nM] 3.0): 103%
- Aurora A % Activity Set3 (aurora A kinase (AURKA); Log[nM] 3.0): 93%
- Aurora A % Activity Set1 (aurora A kinase (AURKA); Log[nM] 3.5): 40%
- Aurora A % Activity Set2 (aurora A kinase (AURKA); Log[nM] 3.5): 40%
- Aurora A % Activity Set3 (aurora A kinase (AURKA); Log[nM] 3.5): 37%
- Aurora A % Activity Set1 (aurora A kinase (AURKA); Log[nM] 4.0): 16%
- Aurora A % Activity Set2 (aurora A kinase (AURKA); Log[nM] 4.0): 16%
- Aurora A % Activity Set3 (aurora A kinase (AURKA); Log[nM] 4.0): 15%
- Aurora A % Activity Set1 (aurora A kinase (AURKA); Log[nM] 4.5): 31%
- Aurora A % Activity Set2 (aurora A kinase (AURKA); Log[nM] 4.5): 30%
- Aurora A % Activity Set3 (aurora A kinase (AURKA); Log[nM] 4.5): 30%
- Aurora A % Activity Set1 (aurora A kinase (AURKA); Log[nM] 5.0): 17%
- Aurora A % Activity Set2 (aurora A kinase (AURKA); Log[nM] 5.0): 15%
- Aurora A % Activity Set3 (aurora A kinase (AURKA); Log[nM] 5.0): 16%

Reference: article PMC6009956, “Design, synthesis and biological activity of N^4-phenylsubstituted-7H-pyrrolo[2,3-d]pyrimidin-4-amines as dual inhibitors of aurora kinase A and epidermal growth factor receptor kinase” (Journal of Enzyme Inhibition and Medicinal Chemistry, 2017)
